Source: patent US20170216350A1, “COMPOSITIONS OF ALUMINUM FLUORIDE AND METHODS OF USE THEREOF FOR THE TREATMENT AND PREVENTION OF ACTINIC KERATOSIS AND SUN-INDUCED DAMAGES” (priority 2012, published 2017)

Test system: actinic keratosis lesions
Conditions: twice daily
Excerpt: A cream was applied on dry skin, on the whole forehead, twice daily. Aluminum fluoride at 0.30% w/w was used in a base cream containing Caprylic/Capric acids, sulfur, resorcinol, medium chain triglycerides, PEG 400, Pluronic F127, Ylang ylang oil and water .
Patient 2 is a person having actinic keratosis on their nose, in particular, two ulcers of about 1 mm each. The aluminum fluoride composition was at 0.30% w/w, and the base cream was modified to a cream containing deionized water, arachidyl alcohol, behenyl alcohol, arachidyl glucoside, montanoV 202, cetearyl alcohol, capric/caprilic triglyceride, isopropyl palmitate, steareth-2, dimethicon, steareth-20, allantoin, propylene glycol, Methylisothiazolinone (sheromix MT) and sodium benzoate.
A cream was applied on dry skin, on the cheek, twice daily. Aluminum fluoride at 0.30% w/w was used in a base cream containing Caprylic/Capric triglycerides, a polyethylene glycol component, hydrophilic non-ionic surfactant and purified water.
A cream was applied on dry skin, on the whole forehead, twice daily. Aluminum fluoride at 0.30% w/w was used in a base cream containing Caprylic/Capric triglycerides, a polyethylene glycol component, hydrophilic non-ionic surfactant and purified water.

aluminum fluoride
actinic keratosis lesions (FIG. 1A/1B) (Patient 1, 8th decade, 0.30% w/w in base cream (Caprylic/Capric acids, sulfur, resorcinol, MCT, PEG 400, Pluronic F127), whole forehead, 3 weeks): gradual disappearance of lesions
vascularization (FIG. 2(ii) compared to FIG. 2(i)) (Patient 2, 0.30% w/w in modified base cream): major decrease in vascularization
actinic keratosis ulcers on nose (two ulcers of about 1 mm each) (Patient 2, 0.30% w/w in modified base cream, after approximately three weeks): closure of the first ulcer and disappearance of the second ulcer
actinic keratosis lesions (FIG. 3A/3B) (Patient 6, 6th decade, 0.30% w/w in base cream (Caprylic/Capric triglycerides, polyethylene glycol component, non-ionic surfactant, water), cheek, 12 weeks): disappearance of lesions
actinic keratosis lesions (FIG. 4A/4B) (Patient 13, 6th decade, 0.30% w/w in base cream (Caprylic/Capric triglycerides, polyethylene glycol component, non-ionic surfactant, water), whole forehead, 10 weeks): disappearance of lesions
